Experimental data published in ChEMBL document CHEMBL1201862, “PubChem BioAssay data set” (2004).
Active and inactive are the calls of the source.

Legend:
Coagulation factor XII = molecular target: T1, Coagulation factor XII (Homo sapiens, UniProt P00748); type: functional;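 note: activated factor XIIa alpha cleaving a fluorogenic AMC peptide substrate; inhibitor potency from loss of enzyme activity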
T1 sequence (P00748 whole entry): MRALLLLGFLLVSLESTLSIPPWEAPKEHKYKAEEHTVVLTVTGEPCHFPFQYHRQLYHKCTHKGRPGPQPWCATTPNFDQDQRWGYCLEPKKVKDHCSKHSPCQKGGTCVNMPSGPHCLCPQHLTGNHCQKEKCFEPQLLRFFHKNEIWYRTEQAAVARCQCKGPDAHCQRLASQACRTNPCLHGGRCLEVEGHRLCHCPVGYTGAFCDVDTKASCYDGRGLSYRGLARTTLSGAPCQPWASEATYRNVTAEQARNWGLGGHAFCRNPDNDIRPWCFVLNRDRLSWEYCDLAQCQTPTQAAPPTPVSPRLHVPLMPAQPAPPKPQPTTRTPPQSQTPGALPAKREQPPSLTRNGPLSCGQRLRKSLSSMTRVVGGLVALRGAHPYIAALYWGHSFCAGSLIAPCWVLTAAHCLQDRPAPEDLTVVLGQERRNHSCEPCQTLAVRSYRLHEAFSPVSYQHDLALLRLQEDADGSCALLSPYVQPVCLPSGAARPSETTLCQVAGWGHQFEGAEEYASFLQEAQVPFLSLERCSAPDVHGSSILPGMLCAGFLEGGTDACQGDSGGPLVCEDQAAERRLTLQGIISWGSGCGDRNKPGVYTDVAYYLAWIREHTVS

[1] = molecular target: T2, Heat shock factor protein 1 (Mus musculus, UniProt P38532); experiment: decrease of HSF1-responsive luciferase luminescence – cell-based, NIH3T3, dose retest, confirmation (AID 2382); type: functional;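 note: NIH3T3 fibroblasts with HSF1-driven luciferase reporter stressed by proteasome inhibitor MG132; luminescence from HSF1-driven luciferase expression after 8 hours of MG132 stress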
T2 sequence (P38532 whole entry): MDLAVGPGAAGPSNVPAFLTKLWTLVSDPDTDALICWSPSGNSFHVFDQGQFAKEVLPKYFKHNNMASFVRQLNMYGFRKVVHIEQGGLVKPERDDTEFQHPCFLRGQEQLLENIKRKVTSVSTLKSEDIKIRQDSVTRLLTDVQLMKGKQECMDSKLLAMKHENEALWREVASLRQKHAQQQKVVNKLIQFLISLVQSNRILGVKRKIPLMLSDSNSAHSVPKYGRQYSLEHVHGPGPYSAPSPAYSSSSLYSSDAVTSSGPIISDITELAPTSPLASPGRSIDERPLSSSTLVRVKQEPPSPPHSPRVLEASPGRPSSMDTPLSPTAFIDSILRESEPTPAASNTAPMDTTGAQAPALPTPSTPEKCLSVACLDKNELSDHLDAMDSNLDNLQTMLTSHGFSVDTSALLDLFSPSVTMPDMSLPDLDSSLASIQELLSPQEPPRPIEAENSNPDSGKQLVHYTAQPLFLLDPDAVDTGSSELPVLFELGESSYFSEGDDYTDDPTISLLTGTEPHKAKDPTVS

[2] = molecular target: Eukaryotic translation initiation factor 4E (Mus musculus, UniProt P63073); experiment: blockers of eIF4G binding by eIF4E – biochemical, TR-FRET, dose response (AID 855); type: functional;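 note: potency for disrupting eIF4E binding to eIF4GI seen as loss of FRET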
[3] = molecular target: T3, Rac GTPase-activating protein 1 (Homo sapiens, UniProt Q9H0H5); experiment: blockers of MgcRacGAP-driven Rac1 GTP hydrolysis – biochemical, ADP Hunter fluorescence, primary and confirmatory, confirmation (AID 624330); type: functional
T3 sequence (Q9H0H5 whole entry): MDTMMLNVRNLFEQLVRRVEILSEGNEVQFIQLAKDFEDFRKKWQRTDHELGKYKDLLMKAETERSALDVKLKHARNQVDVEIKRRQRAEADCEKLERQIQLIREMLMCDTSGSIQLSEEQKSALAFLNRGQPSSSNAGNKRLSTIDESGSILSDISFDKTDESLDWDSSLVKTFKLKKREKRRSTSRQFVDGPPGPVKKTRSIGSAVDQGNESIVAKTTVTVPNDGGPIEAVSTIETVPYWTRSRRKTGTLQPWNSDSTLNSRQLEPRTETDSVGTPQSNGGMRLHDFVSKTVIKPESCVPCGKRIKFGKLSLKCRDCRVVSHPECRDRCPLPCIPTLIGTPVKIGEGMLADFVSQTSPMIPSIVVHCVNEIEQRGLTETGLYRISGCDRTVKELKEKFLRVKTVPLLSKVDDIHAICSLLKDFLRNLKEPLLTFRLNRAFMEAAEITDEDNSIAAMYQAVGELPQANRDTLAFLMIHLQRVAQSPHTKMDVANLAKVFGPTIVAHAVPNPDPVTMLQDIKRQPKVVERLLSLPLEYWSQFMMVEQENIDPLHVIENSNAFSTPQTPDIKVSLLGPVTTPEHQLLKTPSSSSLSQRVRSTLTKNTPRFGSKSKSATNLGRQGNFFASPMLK

[4] = viability of uninfected HEp-2 cells – cell-based, HTS, cytotoxicity control for RSV inhibitor project, dose response (AID 2410); type: functional; settings: human respiratory syncytial virus
[5] = molecular target: Heat shock protein HSP 90-alpha (Homo sapiens, UniProt P07900); type: functional, organism-based
Cytochrome P450 2C9 = Cytochrome P450 2C9 (Homo sapiens, UniProt P11712)
Cytochrome P450 2D6 = Cytochrome P450 2D6 (Homo sapiens, UniProt P10635);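 note: CYP2D6 member of a cytochrome P450 panel assay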
INS1 = experiment: INS-1E survival protection against cytokine death – cell-based, luminescence, retest, dose response (AID 449756); type: functional; settings: Rattus norvegicus;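 note: cell death triggered by IL-1 beta plus TNF-alpha plus IFN-gamma mixture; protective hits raise ATP signal compared with cytokine alone wells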
Genome polyprotein = Genome polyprotein (dengue virus type 2, UniProt P29990); experiment: flavivirus cap methylation enzyme inhibition – biochemical, confirmation dose response, primary screen (AID 588689); type: functional
[6] = molecular target: T4, Zinc finger protein mex-5 (Caenorhabditis elegans, UniProt Q9XUB2); experiment: potency of MEX-5 RNA-binding blockers – biochemical, C. elegans, fluorescence polarization, dose response (AID 1960)
T4 sequence (Q9XUB2 whole entry): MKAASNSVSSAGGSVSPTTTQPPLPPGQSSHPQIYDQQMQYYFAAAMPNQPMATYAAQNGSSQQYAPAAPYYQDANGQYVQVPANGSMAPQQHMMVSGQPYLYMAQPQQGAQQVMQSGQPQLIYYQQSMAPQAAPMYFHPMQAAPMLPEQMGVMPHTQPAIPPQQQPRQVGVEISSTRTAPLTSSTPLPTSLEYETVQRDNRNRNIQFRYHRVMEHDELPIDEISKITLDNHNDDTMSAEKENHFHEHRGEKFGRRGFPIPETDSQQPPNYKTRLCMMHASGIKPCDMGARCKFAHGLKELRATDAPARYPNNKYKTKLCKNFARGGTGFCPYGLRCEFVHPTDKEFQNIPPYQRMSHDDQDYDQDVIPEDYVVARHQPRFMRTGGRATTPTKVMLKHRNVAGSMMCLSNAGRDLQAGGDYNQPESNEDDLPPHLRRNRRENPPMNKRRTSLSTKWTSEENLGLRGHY

[7] = molecular target: T5, RNA-binding protein pos-1 (Caenorhabditis elegans, UniProt G5EF15); experiment: disruptors of C. elegans POS-1 RNA interaction – biochemical, fluorescence polarization, dose response (AID 1964);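 note: purified POS-1 fused to maltose binding protein made in E. coli; potency of compounds blocking POS-1 binding to fluorescent RNA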
T5 sequence (G5EF15 whole entry): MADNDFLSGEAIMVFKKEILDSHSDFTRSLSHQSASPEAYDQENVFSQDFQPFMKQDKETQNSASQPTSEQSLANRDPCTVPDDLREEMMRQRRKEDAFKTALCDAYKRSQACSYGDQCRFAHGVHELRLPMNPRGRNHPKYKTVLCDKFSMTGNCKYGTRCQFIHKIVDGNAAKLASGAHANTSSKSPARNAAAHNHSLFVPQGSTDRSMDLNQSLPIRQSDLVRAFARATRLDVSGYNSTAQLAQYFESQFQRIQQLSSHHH

Streptococcus = experiment: GAS UMAA2166 growth inhibition – luminescence, BacTiterGlo, counter-screen for streptokinase expression inhibitor project, dose response (AID 1915); type: functional, organism-based;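 note: potency for reduction of bacterial viability or growth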
[8] = Trypanosoma cruzi growth suppression in host cells – NIH3T3 host cells, beta-gal luminescence, confirmation (AID 2044); type: functional, cell-based;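 note: intracellular parasites grown in NIH/3T3 mouse fibroblasts as host cells; luminescent beta-galactosidase reporter signal from transgenic T. cruzi replicating inside host cells; inhibitors lower the luminescence signal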
Streptokinase A = molecular target: T6, Streptokinase A (Streptococcus pyogenes serotype M1, UniProt P10520); experiment: viability-normalized secreted streptokinase activity reduction – plasminogen activation absorbance, OD405, dose response (AID 1914); type: functional, Streptococcus pyogenes M1 GAS;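 note: secreted streptokinase activity via plasminogen activation per viability signal from cell pellet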
T6 sequence (P10520 whole entry): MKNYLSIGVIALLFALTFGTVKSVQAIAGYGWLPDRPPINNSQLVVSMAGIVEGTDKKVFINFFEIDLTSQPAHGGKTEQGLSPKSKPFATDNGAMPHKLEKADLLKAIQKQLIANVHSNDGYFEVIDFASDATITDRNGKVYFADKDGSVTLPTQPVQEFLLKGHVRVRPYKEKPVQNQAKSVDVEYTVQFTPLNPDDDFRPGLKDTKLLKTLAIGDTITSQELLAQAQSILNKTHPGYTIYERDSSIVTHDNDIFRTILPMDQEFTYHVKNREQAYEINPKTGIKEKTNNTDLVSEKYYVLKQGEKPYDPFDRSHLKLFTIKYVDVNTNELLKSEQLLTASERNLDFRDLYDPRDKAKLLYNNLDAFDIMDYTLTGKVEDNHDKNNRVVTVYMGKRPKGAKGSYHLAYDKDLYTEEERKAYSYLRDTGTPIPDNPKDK

[9] = system: Streptococcus sp. 'group A'; experiment: Streptococcus pyogenes SK(-)GAS viability under kanamycin – luminescence, BacTiterGlo, confirmation, counter-screen for streptokinase expression inhibitor project, dose response (AID 1900); type: functional, organism-based
[10] = blockers of CRF-binding protein–CRF-R2 complex – cell-based, uHTS hits, 384-well, dose response (AID 651639); type: functional, Homo sapiens; settings: read-out: IC50_Mean
[11] = molecular target: T7, Corticotropin-releasing factor receptor 2/Corticotropin-releasing factor-binding protein (Homo sapiens, UniProt P24387+Q13324); experiment: activators of CRF receptor 2 with binding protein – uHTS hits, confirmation (AID 602473); type: functional; settings: read-out: EC50_Mean
T7 sequence (Q13324 whole entry): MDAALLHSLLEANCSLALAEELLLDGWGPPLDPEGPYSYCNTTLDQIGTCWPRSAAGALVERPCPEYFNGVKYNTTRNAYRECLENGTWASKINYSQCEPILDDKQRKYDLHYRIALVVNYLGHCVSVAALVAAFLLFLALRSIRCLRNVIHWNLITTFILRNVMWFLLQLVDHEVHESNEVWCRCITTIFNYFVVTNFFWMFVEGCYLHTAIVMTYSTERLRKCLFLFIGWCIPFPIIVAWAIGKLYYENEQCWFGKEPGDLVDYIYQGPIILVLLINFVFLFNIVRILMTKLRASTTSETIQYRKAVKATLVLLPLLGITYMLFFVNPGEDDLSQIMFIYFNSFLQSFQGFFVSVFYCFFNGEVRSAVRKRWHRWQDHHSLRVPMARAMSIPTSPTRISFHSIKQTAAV
T7 sequence (P24387 whole entry): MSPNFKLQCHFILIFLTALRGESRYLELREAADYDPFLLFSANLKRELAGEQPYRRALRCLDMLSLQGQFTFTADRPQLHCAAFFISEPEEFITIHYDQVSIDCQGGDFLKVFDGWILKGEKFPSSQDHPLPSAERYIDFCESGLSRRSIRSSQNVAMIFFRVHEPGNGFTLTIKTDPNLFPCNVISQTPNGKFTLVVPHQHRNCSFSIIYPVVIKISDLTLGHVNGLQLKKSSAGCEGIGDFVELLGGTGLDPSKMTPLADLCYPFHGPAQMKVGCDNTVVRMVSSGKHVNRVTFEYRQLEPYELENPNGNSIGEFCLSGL

[12] = molecular target: T7, Corticotropin-releasing factor receptor 2/Corticotropin-releasing factor-binding protein; experiment: Dose Response confirmation of uHTS hits for small molecule antagonists of the CRF-binding protein and CRF-R2 receptor complex.; type: functional; settings: read-out: IC50_Mean

Chain of Genome polyprotein (P29990 2492-3391 limits assumed): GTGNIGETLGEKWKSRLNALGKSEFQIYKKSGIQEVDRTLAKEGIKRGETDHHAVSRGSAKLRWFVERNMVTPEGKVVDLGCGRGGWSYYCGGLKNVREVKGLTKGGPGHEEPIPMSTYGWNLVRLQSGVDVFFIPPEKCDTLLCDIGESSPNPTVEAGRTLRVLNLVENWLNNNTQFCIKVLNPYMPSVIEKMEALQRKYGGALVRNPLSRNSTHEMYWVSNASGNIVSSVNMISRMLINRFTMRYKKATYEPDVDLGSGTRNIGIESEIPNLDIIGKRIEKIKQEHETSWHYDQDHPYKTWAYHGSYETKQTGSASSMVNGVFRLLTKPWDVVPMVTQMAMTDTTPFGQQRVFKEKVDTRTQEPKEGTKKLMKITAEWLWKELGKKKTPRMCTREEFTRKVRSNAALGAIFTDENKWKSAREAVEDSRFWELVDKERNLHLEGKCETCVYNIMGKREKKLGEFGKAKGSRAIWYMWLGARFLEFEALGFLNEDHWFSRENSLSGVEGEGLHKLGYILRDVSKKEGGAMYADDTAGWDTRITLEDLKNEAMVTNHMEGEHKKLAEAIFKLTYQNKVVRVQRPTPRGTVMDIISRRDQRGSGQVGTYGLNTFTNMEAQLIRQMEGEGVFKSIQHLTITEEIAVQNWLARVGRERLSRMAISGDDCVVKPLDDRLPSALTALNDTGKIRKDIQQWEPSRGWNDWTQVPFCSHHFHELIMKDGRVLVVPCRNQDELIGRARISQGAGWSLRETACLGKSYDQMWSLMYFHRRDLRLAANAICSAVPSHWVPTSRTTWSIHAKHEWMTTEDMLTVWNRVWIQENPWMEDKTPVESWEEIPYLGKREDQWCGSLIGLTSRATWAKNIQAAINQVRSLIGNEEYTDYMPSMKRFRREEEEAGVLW
Chain of Cytochrome P450 2D6 (P10635 whole entry): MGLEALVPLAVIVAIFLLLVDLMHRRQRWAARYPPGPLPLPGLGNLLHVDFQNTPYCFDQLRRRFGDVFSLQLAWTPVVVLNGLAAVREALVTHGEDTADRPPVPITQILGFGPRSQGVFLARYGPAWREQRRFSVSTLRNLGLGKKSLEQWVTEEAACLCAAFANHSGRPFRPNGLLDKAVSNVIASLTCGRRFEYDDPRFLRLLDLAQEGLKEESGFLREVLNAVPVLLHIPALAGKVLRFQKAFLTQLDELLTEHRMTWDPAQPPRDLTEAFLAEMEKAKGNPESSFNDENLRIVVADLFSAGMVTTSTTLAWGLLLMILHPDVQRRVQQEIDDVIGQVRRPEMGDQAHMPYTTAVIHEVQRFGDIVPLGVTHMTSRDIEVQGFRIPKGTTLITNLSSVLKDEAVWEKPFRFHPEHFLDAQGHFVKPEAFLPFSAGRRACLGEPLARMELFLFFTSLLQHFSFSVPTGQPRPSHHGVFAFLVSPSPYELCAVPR
Chain of Eukaryotic translation initiation factor 4E (P63073 whole entry): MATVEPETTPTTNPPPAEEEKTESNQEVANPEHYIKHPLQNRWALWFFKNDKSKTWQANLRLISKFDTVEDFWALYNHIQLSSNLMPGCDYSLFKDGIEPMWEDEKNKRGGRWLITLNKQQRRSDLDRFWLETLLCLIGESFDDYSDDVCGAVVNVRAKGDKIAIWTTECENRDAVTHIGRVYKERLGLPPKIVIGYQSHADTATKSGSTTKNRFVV
Chain of Cytochrome P450 2C9 (P11712 whole entry): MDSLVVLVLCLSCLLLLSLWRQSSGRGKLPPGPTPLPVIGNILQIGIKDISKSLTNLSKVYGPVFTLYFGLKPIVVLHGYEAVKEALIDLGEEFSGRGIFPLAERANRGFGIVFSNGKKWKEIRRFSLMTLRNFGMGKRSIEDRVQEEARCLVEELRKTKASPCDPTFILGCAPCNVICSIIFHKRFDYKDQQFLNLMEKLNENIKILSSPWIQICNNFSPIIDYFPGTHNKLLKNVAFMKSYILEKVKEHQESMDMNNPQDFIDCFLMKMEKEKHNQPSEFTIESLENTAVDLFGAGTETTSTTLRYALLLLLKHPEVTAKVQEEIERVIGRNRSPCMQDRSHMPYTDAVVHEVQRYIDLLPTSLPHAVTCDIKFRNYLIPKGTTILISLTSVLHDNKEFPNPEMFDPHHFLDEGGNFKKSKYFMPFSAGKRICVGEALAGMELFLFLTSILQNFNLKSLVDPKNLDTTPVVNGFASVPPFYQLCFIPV

In the case of C/C(=N\NC(=O)CCn1nnc2ccccc21)c1cccs1, the IC50 (Coagulation factor XII) is reported as > 50 µM (inactive).

In the case of CCOC(=O)c1c(N)sc2c(O)c(Br)ccc12, the EC50 [1] is reported as > 195 µM (not active), the IC50 [2] is reported as > 64 µM (inactive) and the IC50 [3] is reported as 58.6 µM (active). The CC50 [4] was 47 µM (active).

In the case of CN(C)/C=C/C(=O)c1ccc2noc(-c3ccccc3)c2c1, the AC50 [5] is reported as 2.51 µM (active).

In the case of Cc1ccc(-c2nn(-c3ccccc3)cc2/C=N/NS(=O)(=O)c2ccccc2)cc1, the IC50 (Coagulation factor XII) is reported as > 50 µM (inactive).

For CCCCc1nc(O)c(C#N)c2c1CCCC2, the IC50 (Coagulation factor XII) was > 50 µM (inactive), the AC50 (Cytochrome P450 2C9) was 0.251 µM (inconclusive) and the AC50 (Cytochrome P450 2D6) was 35.5 µM (inconclusive).

For COc1cccc(Cn2c(NCc3ccco3)nc3c2c(=O)n(C)c(=O)n3C)c1, the IC50 (Coagulation factor XII) was > 50 µM (inactive) and the AC50 (INS1) was 3.85 µM (active).

For CSc1sccc1/C=C(/C#N)C(=O)c1ccco1, the IC50 (Genome polyprotein) was > 100 µM (active), the EC50 [6] was > 300 µM (not active) and the EC50 [7] was > 300 µM (not active). The IC50 [3] was 22.8 µM (active).

With Oc1c(C(Nc2ccccn2)c2cccnc2)cc(Cl)c2cccnc12 (stereo not given) the EC50 (Streptococcus) was 9.26 µM (active), the AC50 (INS1) was 2.65 µM (active) and the AC50 [5] was 4.19 µM (active). The EC50 [8] was 1.64 µM (active), the EC50 (Streptokinase A) was > 150 µM (not active) and the EC50 [9] was 4.69 µM (active).

In the case of CC(C)c1ccc(Nc2ccc(C(=O)O)cc2[N+](=O)[O-])cc1, the IC50 (Genome polyprotein) is reported as 70.7 µM (active).

With O=[N+]([O-])c1cc(-c2ccccc2)cc([N+](=O)[O-])c1O the IC50 [10] was > 20 µM (inactive), the IC50 (Genome polyprotein) was 58.8 µM (active) and the EC50 [11] was > 53 µM (inactive). For the same molecule, the IC50 [12] was 9.96 µM (active).

For C=CCSc1nc(C)c(CC=C)c(O)n1, the IC50 (Coagulation factor XII) was > 50 µM (inactive).

For Cc1ccc(S(=O)(=O)N(Cc2ccccc2)c2ccccc2C(=O)NCc2ccco2)cc1, the IC50 [10] was 6.81 µM (active), the IC50 (Coagulation factor XII) was > 50 µM (inactive) and the EC50 [11] was > 53 µM (inactive). The IC50 [12] was < 0.368 µM (active) and the AC50 (Cytochrome P450 2D6) was 15.8 µM (inconclusive).

In the case of O=C(Nc1ccccc1C(=O)O)c1cccc(C(=O)Nc2ccccc2C(=O)O)c1, the IC50 (Genome polyprotein) is reported as 54.9 µM (active).

In the case of CSc1nsc(SCC(=O)N2CCc3ccccc32)n1, the IC50 [2] is reported as > 64 µM (inactive).
